Where “and” joins values, the source holds several entries; their conditions need not be identical. Equal entries are not always repeated. Where two headings read alike, the source gives them in different places. Where a SMILES comes first, the peptide text is derived from it. [ ]: non-standard residue; d: D form. The star is where a group is joined. PEG4 = NCCOCCOCCOCCOCCC(=O)O; Piperidide = C1CCN(*)CC1
Columns and labels:
H460 cell line = experiment: cells; type: cell-based
Description: (§1) MTT assay was conducted as previously described.^[ [44] ^] Tumor cell lines (NCI‐H460, NCI‐H838, HT‐1080, MCF‐7, PC‐3, U‐251‐MG, and U‐87 MG) were seeded in 96‐well plates at a density of 8000 cells per well in a volume of 100 µL and cultured for 24 h. Normal cell lines (HaCaT, HMEC‐1, MRC‐5, and HEK‐293) were seeded in 96‐well plates at a density of 10 000 cells per well in a volume of 100 µL and cultured for 48 h. After that, only tumor cell lines were starved with 100 µL of SFM for a further 4–6 h. Subsequently, cells were treated with 100 µL of compound solutions with different concentrations for 24 h. Cells treated with SFM and 0.5% DMSO in SFM served as blank control and growth control, respectively. Ten µL of MTT solution (5 mg mL^−1) was added to each well, followed by an additional incubation period of 2 h for tumor cells and 4 h for normal cells. Finally, the solvent in each well was swapped with 100 µL of DMSO to dissolve the formazan crystals. The absorbance was measured by the plate reader at 570 nm.
(§2) The cell viability was calculated (1) Cellviability%=ODSamplegroup−ODBlank/ODGrowthgroup−ODBlank×100%

HEK-293 normal cell line = experiment: cells; type: cell-based
Description: as §1, §2

erythrocytes = type: cell-based; conditions: red cells of horse, 2 h
Description: Defibrinated horse blood (1 mL) was washed 3 times with 0.9% NaCl solution to remove plasma and then resuspended in 20 mL of 0.9% NaCl solution to obtain a red blood cell (RBC) suspension. Aliquots of the RBC suspension (100 µL) were incubated with 100 µL of compound solutions at concentrations ranging from 100 to 1.5625 µM (twofold serial dilution) for 2 h at 37 °C. RBCs treated with 0.9% NaCl solution and 1% Triton X‐100 solution served as blank and positive controls, respectively. Subsequently, the samples were centrifuged at 900 × g for 10 min, and the absorbance of the supernatant was measured at 570 nm.
The hemolysis ratio was calculated as (2) Hemolysis%=ODSamplegroup−ODBlank/ODPositivegroup−ODBlank×100%

[1] = 50% human serum (from human male AB plasma, US origin; centrifuged to remove the lipid content); conditions: 37 °C, up to 24 h

O=c1[nH]cc(F)c(=O)[nH]1 [5-Fluorouracil, 5-fluorouracil, reference compound]
IC50 (H460 cell line; Homo sapiens, NCI-H460, read-out: IC50 Value of chemotherapeutics, H460): 432 ± 61.2 µM
IC50 (HEK-293 normal cell line; Homo sapiens, HEK293, read-out: IC50 Value of chemotherapeutics, HEK-293): 430 ± 40.2 µM

CC[C@H](C)[C@H](NC(=O)[C@H](CCCCN)NC(=O)[C@@H]1CCCN1C(=O)[C@H](CC(C)C)NC(=O)[C@@H](NC(=O)[C@H](CO)NC(=O)[C@H](CCC(=O)N1CCCCC1)NC(=O)[C@H](CC(C)C)NC(=O)[C@H](CC(=O)O)NC(=O)[C@H](CC(=O)O)NC(=O)[C@H](Cc1ccccc1)NC(=O)[C@@H](NC(=O)[C@H](CCCCN)NC(=O)[C@@H]1CCCN1C(=O)[C@H](Cc1ccccc1)NC(=O)[C@H](Cc1ccccc1)NC(=O)[C@H](CCC(=O)O)NC(=O)[C@H](C)N)[C@@H](C)CC)[C@@H](C)CC)C(=O)N[C@@H](CC(C)C)C(N)=O [239-1] (H-AEFFPKIFDDLE(Piperidide)SILPKIL-NH2)
HC10 (concentration causing 10% of erythrocytes lysis) (erythrocytes): 97.64 µM
IC50 (H460 cell line; 24 h): 88.2 µM
IC50 (HEK-293 normal cell line; 24 h): > 100 µM

CC[C@H](C)[C@H](NC(=O)[C@H](CCCCN)NC(=O)[C@@H]1CCCN1C(=O)[C@H](CC(C)C)NC(=O)[C@@H](NC(=O)[C@H](CO)NC(=O)[C@H](CCC(=O)N1CCCCC1)NC(=O)[C@H](CC(C)C)NC(=O)[C@H](CC(=O)O)NC(=O)[C@H](CC(=O)O)NC(=O)[C@H](Cc1ccccc1)NC(=O)[C@@H](NC(=O)[C@H](CCCCN)NC(=O)[C@@H]1CCCN1C(=O)[C@H](Cc1ccccc1)NC(=O)[C@H](Cc1ccccc1)NC(=O)[C@@H](NC(=O)[C@H](C)N)[C@@H](C)O)[C@@H](C)CC)[C@@H](C)CC)C(=O)N[C@@H](CC(C)C)C(N)=O [239-2] (H-ATFFPKIFDDLE(Piperidide)SILPKIL-NH2)
HC10 (concentration causing 10% of erythrocytes lysis) (erythrocytes): 57.04 µM
IC50 (H460 cell line; 24 h): 36.8 ± 3.25 µM
IC50 (HEK-293 normal cell line; 24 h): 44.8 ± 4.06 µM

CC[C@H](C)[C@H](NC(=O)[C@H](CCCCN)NC(=O)[C@@H]1CCCN1C(=O)[C@H](CC(C)C)NC(=O)[C@@H](NC(=O)[C@H](CO)NC(=O)[C@H](CCC(=O)N1CCCCC1)NC(=O)[C@H](CC(C)C)NC(=O)[C@H](CC(=O)O)NC(=O)[C@H](CC(=O)O)NC(=O)[C@H](Cc1ccccc1)NC(=O)[C@@H](NC(=O)[C@H](CCCCN)NC(=O)[C@@H]1CCCN1C(=O)[C@H](Cc1ccccc1)NC(=O)[C@H](Cc1ccccc1)NC(=O)[C@H](CCCNC(=N)N)NC(=O)[C@H](C)N)[C@@H](C)CC)[C@@H](C)CC)C(=O)N[C@@H](CC(C)C)C(N)=O [239-3] (H-ARFFPKIFDDLE(Piperidide)SILPKIL-NH2)
HC10 (concentration causing 10% of erythrocytes lysis) (erythrocytes): 24.72 µM
IC50 (H460 cell line; 24 h): 14.7 ± 1.22 µM
IC50 (HEK-293 normal cell line; 24 h): 15 ± 1.38 µM

CC[C@H](C)[C@H](NC(=O)[C@H](CCCCN)NC(=O)[C@@H]1CCCN1C(=O)[C@H](CC(C)C)NC(=O)[C@@H](NC(=O)[C@H](CO)NC(=O)[C@H](CCC(=O)N1CCCCC1)NC(=O)[C@H](CC(C)C)NC(=O)[C@H](CC(=O)O)NC(=O)[C@H](CC(=O)O)NC(=O)[C@H](Cc1ccccc1)NC(=O)[C@@H](NC(=O)[C@H](CCCCN)NC(=O)[C@@H]1CCCN1C(=O)[C@H](Cc1ccccc1)NC(=O)[C@H](Cc1ccccc1)NC(=O)[C@H](CCCCN)NC(=O)[C@H](C)N)[C@@H](C)CC)[C@@H](C)CC)C(=O)N[C@@H](CC(C)C)C(N)=O [239-4] (H-AKFFPKIFDDLE(Piperidide)SILPKIL-NH2)
HC10 (concentration causing 10% of erythrocytes lysis) (erythrocytes): 25.61 µM
IC50 (H460 cell line; 24 h): 22.2 ± 1.06 µM
IC50 (HEK-293 normal cell line; 24 h): 31.5 ± 4.28 µM

N.N.[Cl][Pt][Cl] [Cisplatin, cisplatin, reference compound]
IC50 (H460 cell line; Table S11, MTT, read-out: IC50 Value of chemotherapeutics, H460): 203 ± 26.9 µM
IC50 (HEK-293 normal cell line; Table S11, MTT, read-out: IC50 Value of chemotherapeutics, HEK-293): 162 ± 18.8 µM

CC(=O)O[C@H]1C(=O)[C@@]2(C)[C@H]([C@H](OC(=O)c3ccccc3)[C@]3(O)C[C@H](OC(=O)[C@H](O)[C@@H](NC(=O)c4ccccc4)c4ccccc4)C(C)=C1C3(C)C)[C@]1(OC(C)=O)CO[C@@H]1C[C@@H]2O [Paclitaxel, paclitaxel, reference compound]
IC50 (H460 cell line; Homo sapiens, NCI-H460, Table S11, MTT, read-out: IC50 Value of chemotherapeutics, H460): 220 ± 65 µM
IC50 (HEK-293 normal cell line; Homo sapiens, HEK293, Table S11, MTT, read-out: IC50 Value of chemotherapeutics, HEK-293): < 7 µM

CC[C@H](C)[C@H](NC(=O)[C@H](CCCCN)NC(=O)[C@@H]1CCCN1C(=O)[C@H](CC(C)C)NC(=O)[C@@H](NC(=O)[C@H](CO)NC(=O)[C@H](CCC(=O)N1CCCCC1)NC(=O)[C@H](CC(C)C)NC(=O)[C@H](CC(=O)O)NC(=O)[C@H](CC(=O)O)NC(=O)[C@H](Cc1ccccc1)NC(=O)[C@@H](NC(=O)[C@H](CCCCN)NC(=O)[C@@H]1CCCN1C(=O)[C@H](Cc1ccccc1)NC(=O)[C@@H](N)Cc1ccccc1)[C@@H](C)CC)[C@@H](C)CC)C(=O)N[C@@H](CC(C)C)C(=O)NCC(=O)N1CCC[C@H]1C(=O)N[C@@H](CC(C)C)C(=O)NCC(=O)N[C@@H](CC(C)C)C(=O)N[C@@H](C)C(=O)NCC(=O)NCCOCCOCCOCCOCCC(N)=O [compound 204] (H-FFPKIFDDLE(Piperidide)SILPKILGPLGLAG[PEG4]-NH2)
HC10 (concentration causing 10% of erythrocytes lysis) (erythrocytes): 46.10 µM
IC50 (H460 cell line; 24 h): 20 ± 1.05 µM
IC50 (HEK-293 normal cell line; 24 h): 34.1 ± 3.41 µM

CC[C@H](C)[C@H](NC(=O)[C@H](CCCCN)NC(=O)[C@@H]1CCCN1C(=O)[C@H](CC(C)C)NC(=O)[C@@H](NC(=O)[C@H](CO)NC(=O)[C@H](CCC(=O)N1CCCCC1)NC(=O)[C@H](CC(C)C)NC(=O)[C@H](CC(=O)O)NC(=O)[C@H](CC(=O)O)NC(=O)[C@H](Cc1ccccc1)NC(=O)[C@@H](NC(=O)[C@H](CCCCN)NC(=O)[C@@H]1CCCN1C(=O)[C@H](Cc1ccccc1)NC(=O)[C@@H](N)Cc1ccccc1)[C@@H](C)CC)[C@@H](C)CC)C(=O)N[C@@H](CC(C)C)C(=O)NCC(=O)N1CCC[C@H]1C(=O)N[C@@H](CC(C)C)C(=O)NCC(=O)N[C@@H](CC(C)C)C(=O)N[C@@H](C)C(=O)NCC(=O)NCCOCCOCCOCCOCCC(=O)NCCOCCOCCOCCOCCC(N)=O [compound 207] (H-FFPKIFDDLE(Piperidide)SILPKILGPLGLAG[PEG4][PEG4]-NH2)
HC10 (concentration causing 10% of erythrocytes lysis) (erythrocytes): 69.26 µM
IC50 (H460 cell line; 24 h): 28 ± 1.59 µM
IC50 (HEK-293 normal cell line; 24 h): 44.2 ± 3.21 µM

CC[C@H](C)[C@H](NC(=O)[C@H](CCCCN)NC(=O)[C@@H]1CCCN1C(=O)[C@H](CC(C)C)NC(=O)[C@@H](NC(=O)[C@H](CO)NC(=O)[C@H](CCC(=O)N1CCCCC1)NC(=O)[C@H](CC(C)C)NC(=O)[C@H](CC(=O)O)NC(=O)[C@H](CC(=O)O)NC(=O)[C@H](Cc1ccccc1)NC(=O)[C@@H](NC(=O)[C@H](CCCCN)NC(=O)[C@@H]1CCCN1C(=O)[C@H](Cc1ccccc1)NC(=O)[C@@H](N)Cc1ccccc1)[C@@H](C)CC)[C@@H](C)CC)C(=O)N[C@@H](CC(C)C)C(=O)NCC(=O)NCC(=O)NCC(=O)NCC(=O)NCC(=O)NCC(=O)NCC(=O)NCCOCCOCCOCCOCCC(=O)NCCOCCOCCOCCOCCC(=O)NCCOCCOCCOCCOCCC(=O)NCCOCCOCCOCCOCCC(N)=O [compound 288] (H-FFPKIFDDLE(Piperidide)SILPKILGGGGGGG[PEG4][PEG4][PEG4][PEG4]-NH2)
HC10 (concentration causing 10% of erythrocytes lysis) (erythrocytes): >100 µM
IC50 (H460 cell line; 24 h): > 100 µM
IC50 (HEK-293 normal cell line; 24 h): > 100 µM

AEFFPKIFDDLE(PIP)SILPKIL-NH2
cleaved bond [1]: Ala-E

AK(Ac)FFPKIFDDLE(PIP)SILPKIL-NH2
fragment found [1]: 239-4-Ac-1 FPKIFDDLE(PIP)SILPKIL-NH2 and 239-4-Ac-2 FFPKIFDDLE(PIP)SILPKIL-NH2

AKFFPKIFDDLE(PIP)SILPKIL-NH2
cleaved bond [1]: Ala-K

AKFFPKIFDDLE(PIP)SILPKILGPLGLAG-(PEG4)6-NH2
not cleaved [1]: nearly 100% remaining ratio after 24 h

ARFFPKIFDDLE(PIP)SILPKIL-NH2
cleaved bond [1]: R-F, major

ATFFPKIFDDLE(PIP)SILPKIL-NH2
cleaved bond [1]: F-F, major

FFPKIFDDLE(PIP)SILPKIL-NH2
cleaved bond [1]: Phe1-F

FFPKIFDDLE(PIP)SILPKILGPLGLAG-(PEG4)4-NH2
cleaved bond [1]: Phe1-F
